Eleven molecules from ChEMBL document CHEMBL5465560, “Selectivity Literature for EUbOPEN Chemogenomic Library” (2024) can be followed below.

Assay [1] deals with Vascular endothelial growth factor receptor 3 (Homo sapiens, UniProt P35916). Nature of the assay: Selectivity interaction (ProQinase) EUB0000171b FLT4.
Assay [2] has as its target T1, Focal adhesion kinase 1 (Homo sapiens, UniProt Q05397). Nature of the assay: Selectivity interaction (ProQinase) EUB0000171b PTK2.
The target of assay [3] is Leucine-rich repeat serine/threonine-protein kinase 2 (Homo sapiens, UniProt Q5S007). Nature of the assay: (§1) Selectivity interaction (KinomeScan (DiscoverX)) EUB0001049a LRRK2. Particulars: at 1 µM.
For assay [4], the system named is Leucine-rich repeat serine/threonine-protein kinase 2 (Homo sapiens), Q5S007 [G2019S]. The description is as §1. Particulars: at 1 µM.
Assay [5] has as its target cAMP-dependent protein kinase catalytic subunit alpha (Homo sapiens, UniProt P17612). Nature of the assay: Selectivity interaction (KinomeScan (DiscoverX)) EUB0001049a PRKACA. Particulars: at 1 µM.
The target in assay [6] is Testis-specific serine/threonine-protein kinase 4 (Homo sapiens) (UniProt Q6SA08). The experiment in a line: Selectivity interaction (Kinase panel (Eurofins)) EUB0001564a TSSK4. Particulars: at 1 µM.
Assay [7] addresses Beta-2 adrenergic receptor (Homo sapiens, UniProt P07550). The experiment in a line: Selectivity interaction (Panel of kinases, GPCRs, ion channels and transporters (enzymatic assay)) EUB0000223bCl ADRB2.
Assay [8] addresses Transcription initiation factor TFIID subunit 1-like (Homo sapiens) (UniProt Q8IZX4). The experiment in a line: Selectivity interaction (Bromodomain panel (DSF asssay)) EUB0000270b TAF1L.
In assay [9] the target is T2, Mitogen-activated protein kinase kinase kinase 2 (Homo sapiens) (UniProt Q9Y2U5).
T2 sequence (whole entry): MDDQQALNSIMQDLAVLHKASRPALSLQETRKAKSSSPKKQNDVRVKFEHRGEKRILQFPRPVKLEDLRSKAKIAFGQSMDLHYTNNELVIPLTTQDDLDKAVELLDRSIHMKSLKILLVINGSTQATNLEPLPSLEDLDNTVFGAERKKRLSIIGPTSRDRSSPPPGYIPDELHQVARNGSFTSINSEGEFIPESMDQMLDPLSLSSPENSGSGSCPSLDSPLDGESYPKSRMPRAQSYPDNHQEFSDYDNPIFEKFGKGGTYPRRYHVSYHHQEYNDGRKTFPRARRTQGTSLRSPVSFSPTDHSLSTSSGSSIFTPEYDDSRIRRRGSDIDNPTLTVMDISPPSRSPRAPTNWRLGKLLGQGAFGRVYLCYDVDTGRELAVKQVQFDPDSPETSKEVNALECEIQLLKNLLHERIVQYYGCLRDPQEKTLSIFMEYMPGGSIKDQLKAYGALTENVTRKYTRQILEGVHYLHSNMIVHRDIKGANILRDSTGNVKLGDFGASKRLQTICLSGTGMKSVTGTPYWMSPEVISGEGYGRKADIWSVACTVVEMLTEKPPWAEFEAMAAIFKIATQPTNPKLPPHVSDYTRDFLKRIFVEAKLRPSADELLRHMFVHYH
The experiment in a line: Selectivity interaction (KinomeScan (DiscoverX)) EUB0000045b MAP3K2.

The target in assay [10] is Phosphatidylinositol 4-phosphate 3-kinase C2 domain-containing subunit beta (Homo sapiens) (UniProt O00750). Nature of the assay: Selectivity interaction (KinomeScan (DiscoverX)) EUB0000666a PIK3C2B. Particulars: at 10 µM.
For assay [11], the target named is T3, Serine/threonine-protein kinase Chk1 (Homo sapiens) (UniProt O14757).
T3 sequence (whole entry): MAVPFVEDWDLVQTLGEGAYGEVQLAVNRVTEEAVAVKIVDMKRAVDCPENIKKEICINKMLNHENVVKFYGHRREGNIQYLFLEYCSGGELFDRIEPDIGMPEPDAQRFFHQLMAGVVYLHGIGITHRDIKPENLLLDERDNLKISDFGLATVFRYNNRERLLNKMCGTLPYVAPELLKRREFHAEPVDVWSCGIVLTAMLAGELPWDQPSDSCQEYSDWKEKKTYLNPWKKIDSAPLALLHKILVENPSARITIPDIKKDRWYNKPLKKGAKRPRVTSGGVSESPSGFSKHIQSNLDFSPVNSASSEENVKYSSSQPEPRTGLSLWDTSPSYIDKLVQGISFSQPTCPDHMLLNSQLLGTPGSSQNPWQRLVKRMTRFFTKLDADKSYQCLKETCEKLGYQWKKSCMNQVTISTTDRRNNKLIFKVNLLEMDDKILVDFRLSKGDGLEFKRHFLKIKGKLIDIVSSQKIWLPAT
Nature of the assay: Selectivity interaction (KinomeScan (DiscoverX)) EUB0000666a CHEK1. Particulars: at 10 µM.

Assay [12] addresses Histone-lysine N-methyltransferase KMT5C (Homo sapiens) (UniProt Q86Y97). Nature of the assay: Selectivity interaction (Methyltransferase screen (radiometric assays, panel of 8 PRMTs, 21 protein lysine methyltransferases, 3 DNA methyltransferases, and one RNA methyltransferase)) EUB0000272b SUV420H2.
For assay [13], the target named is T4, Dual specificity mitogen-activated protein kinase kinase 4 (Homo sapiens) (UniProt P45985).
T4 sequence (whole entry): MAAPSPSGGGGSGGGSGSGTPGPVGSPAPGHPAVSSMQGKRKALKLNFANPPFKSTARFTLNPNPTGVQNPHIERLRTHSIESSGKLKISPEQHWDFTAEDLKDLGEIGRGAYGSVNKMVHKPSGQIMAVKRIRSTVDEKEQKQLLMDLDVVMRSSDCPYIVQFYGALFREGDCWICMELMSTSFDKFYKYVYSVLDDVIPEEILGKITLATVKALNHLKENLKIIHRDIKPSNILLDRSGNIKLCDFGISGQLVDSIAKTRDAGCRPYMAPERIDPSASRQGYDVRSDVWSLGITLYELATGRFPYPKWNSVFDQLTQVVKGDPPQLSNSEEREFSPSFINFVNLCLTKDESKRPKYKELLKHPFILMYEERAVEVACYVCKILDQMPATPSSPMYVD
The experiment in a line: Selectivity interaction (ActivX KiNativ screen (kinase selectivity in THP-1 cell lysates)) EUB0000639a MAP2K4. Format: subcellular. Particulars: lysate, at 0.01 µM.

The target of assay [14] is T5, Myosin light chain kinase, smooth muscle (Homo sapiens, UniProt Q15746). The experiment in a line: Selectivity interaction (Kinase panel (Invitrogen)) EUB0000639a MYLK. Particulars: at 200 nM.
The target in assay [15] is Serine/threonine-protein kinase/endoribonuclease IRE1 (Homo sapiens) (UniProt O75460). The experiment in a line: Selectivity interaction (ActivX KiNativ screen (kinase selectivity in THP-1 cell lysates)) EUB0000639a ERN1. The format is subcellular. Particulars: lysate.
Assay [16] addresses T1, Focal adhesion kinase 1. Nature of the assay: Selectivity interaction (KinomeScan (DiscoverX)) EUB0001619a PTK2. Particulars: at 1 µM.
Assay [17] has as its target T5, Myosin light chain kinase, smooth muscle. The experiment in a line: Selectivity interaction (Kinase panel (Invitrogen, enzymatic assay)) EUB0000162b MYLK.

Some results are limits rather than exact numbers.

Chain of Serine/threonine-protein kinase/endoribonuclease IRE1 (Homo sapiens) (O75460 19-977 limits assumed): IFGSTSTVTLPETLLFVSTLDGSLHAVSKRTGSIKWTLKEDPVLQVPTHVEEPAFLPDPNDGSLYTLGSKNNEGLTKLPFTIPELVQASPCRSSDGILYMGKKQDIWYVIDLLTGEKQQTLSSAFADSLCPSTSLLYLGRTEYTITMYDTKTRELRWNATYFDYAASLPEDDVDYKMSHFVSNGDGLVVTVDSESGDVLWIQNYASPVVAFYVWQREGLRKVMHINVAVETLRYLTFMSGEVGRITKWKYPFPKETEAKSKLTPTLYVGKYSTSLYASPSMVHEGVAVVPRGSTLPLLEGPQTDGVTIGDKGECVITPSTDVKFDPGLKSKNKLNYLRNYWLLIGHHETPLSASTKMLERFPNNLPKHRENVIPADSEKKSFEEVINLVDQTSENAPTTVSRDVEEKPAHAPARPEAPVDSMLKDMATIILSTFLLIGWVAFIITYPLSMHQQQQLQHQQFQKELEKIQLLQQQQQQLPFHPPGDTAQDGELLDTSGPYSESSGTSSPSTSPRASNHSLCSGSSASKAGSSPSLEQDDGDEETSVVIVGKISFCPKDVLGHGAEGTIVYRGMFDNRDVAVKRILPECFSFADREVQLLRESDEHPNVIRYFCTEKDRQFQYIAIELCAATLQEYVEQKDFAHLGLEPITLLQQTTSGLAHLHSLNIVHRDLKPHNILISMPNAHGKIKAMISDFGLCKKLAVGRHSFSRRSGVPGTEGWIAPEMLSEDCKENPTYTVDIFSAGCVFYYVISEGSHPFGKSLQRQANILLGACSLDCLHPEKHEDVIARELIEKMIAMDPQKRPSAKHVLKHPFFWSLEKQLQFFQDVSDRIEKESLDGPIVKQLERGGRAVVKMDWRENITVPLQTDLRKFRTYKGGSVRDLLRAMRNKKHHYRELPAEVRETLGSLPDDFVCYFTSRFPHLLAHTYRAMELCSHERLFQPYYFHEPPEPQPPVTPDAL
T1 sequence (Q05397 2-1052 limits assumed): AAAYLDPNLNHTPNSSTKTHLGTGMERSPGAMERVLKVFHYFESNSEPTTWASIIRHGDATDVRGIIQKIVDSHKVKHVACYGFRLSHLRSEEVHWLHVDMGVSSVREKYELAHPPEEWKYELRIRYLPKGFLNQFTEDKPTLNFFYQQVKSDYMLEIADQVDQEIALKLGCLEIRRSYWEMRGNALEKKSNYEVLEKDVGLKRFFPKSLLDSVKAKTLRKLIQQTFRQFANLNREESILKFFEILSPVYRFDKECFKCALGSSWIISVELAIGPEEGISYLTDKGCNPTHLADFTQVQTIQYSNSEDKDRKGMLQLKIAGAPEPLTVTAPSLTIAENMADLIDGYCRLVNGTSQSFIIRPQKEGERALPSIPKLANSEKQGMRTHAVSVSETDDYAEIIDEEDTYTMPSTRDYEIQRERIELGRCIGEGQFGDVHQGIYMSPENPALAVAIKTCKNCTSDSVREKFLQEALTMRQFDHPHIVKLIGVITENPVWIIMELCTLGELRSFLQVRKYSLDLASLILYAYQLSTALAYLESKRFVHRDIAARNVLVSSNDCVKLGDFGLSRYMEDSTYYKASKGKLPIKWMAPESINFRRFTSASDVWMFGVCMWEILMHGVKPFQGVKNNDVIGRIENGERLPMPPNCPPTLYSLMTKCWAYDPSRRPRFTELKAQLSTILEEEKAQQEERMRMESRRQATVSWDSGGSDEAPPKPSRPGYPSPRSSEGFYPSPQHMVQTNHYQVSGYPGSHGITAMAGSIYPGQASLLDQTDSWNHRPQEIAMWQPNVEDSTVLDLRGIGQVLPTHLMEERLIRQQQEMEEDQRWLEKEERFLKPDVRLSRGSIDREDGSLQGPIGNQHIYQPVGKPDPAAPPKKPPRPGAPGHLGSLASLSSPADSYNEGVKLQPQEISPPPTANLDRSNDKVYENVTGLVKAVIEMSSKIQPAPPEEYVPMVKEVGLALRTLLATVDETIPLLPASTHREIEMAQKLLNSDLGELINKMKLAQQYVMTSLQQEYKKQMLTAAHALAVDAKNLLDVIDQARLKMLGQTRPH
Chain of Histone-lysine N-methyltransferase KMT5C (Homo sapiens) (Q86Y97 whole entry, looked up): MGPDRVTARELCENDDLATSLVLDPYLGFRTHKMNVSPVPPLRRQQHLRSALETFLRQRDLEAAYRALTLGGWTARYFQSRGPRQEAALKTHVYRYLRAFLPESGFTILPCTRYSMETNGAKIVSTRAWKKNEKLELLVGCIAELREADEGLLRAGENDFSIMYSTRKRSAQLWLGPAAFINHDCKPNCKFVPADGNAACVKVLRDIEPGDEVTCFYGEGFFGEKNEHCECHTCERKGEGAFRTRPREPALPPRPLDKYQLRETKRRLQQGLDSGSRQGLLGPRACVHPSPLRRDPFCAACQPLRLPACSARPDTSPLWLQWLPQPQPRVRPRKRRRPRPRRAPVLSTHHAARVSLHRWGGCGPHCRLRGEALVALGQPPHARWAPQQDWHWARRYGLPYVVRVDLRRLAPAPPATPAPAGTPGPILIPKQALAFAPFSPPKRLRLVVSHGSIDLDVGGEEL
T5 sequence (Q15746 whole entry): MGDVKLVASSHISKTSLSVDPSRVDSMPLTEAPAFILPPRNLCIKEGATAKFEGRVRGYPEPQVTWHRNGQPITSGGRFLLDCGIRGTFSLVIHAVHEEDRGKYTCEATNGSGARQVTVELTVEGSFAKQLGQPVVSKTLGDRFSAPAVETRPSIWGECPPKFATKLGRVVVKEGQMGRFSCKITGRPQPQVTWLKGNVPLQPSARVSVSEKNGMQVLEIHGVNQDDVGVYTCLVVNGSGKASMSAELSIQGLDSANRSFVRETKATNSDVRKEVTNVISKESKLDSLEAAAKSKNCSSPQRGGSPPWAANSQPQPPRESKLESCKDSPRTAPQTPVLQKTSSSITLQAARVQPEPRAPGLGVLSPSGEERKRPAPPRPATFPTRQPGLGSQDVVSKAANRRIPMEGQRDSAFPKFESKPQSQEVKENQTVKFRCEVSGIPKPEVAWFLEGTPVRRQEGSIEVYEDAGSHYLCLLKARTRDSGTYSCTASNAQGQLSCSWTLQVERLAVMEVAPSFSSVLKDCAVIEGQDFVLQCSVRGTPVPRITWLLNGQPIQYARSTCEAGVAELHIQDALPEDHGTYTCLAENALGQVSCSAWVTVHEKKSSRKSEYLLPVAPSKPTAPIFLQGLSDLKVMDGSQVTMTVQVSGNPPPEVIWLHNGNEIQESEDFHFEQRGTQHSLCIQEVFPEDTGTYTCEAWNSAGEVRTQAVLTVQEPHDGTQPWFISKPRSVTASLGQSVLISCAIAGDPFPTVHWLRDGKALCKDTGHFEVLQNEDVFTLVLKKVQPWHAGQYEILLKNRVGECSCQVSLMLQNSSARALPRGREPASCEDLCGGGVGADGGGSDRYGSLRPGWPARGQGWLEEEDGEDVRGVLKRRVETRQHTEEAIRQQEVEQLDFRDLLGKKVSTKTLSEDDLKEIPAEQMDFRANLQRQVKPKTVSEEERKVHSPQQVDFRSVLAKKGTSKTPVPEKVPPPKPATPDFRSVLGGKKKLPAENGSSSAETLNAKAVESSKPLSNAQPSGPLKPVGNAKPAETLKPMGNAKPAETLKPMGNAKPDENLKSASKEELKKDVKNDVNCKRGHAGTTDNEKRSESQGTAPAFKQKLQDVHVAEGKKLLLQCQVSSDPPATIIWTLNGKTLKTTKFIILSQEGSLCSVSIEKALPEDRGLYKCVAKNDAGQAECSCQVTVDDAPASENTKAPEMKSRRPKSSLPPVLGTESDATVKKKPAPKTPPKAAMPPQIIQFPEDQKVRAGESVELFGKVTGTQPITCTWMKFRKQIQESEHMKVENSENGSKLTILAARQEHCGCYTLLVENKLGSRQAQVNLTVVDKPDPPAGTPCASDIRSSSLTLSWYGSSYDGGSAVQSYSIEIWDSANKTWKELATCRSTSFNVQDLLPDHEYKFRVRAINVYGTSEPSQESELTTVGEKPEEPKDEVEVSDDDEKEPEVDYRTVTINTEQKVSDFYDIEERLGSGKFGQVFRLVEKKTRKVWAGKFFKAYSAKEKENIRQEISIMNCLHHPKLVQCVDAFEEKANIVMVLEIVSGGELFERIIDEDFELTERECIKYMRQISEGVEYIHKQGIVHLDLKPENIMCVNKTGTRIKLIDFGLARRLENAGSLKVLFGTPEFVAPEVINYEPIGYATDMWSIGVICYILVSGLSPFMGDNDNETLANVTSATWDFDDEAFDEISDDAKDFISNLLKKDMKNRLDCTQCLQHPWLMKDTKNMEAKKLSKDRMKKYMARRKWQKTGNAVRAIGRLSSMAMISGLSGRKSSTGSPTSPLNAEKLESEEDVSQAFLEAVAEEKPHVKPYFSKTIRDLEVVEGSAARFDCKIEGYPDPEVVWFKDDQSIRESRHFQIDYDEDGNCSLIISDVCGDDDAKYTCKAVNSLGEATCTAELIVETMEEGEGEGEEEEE
Chain of Beta-2 adrenergic receptor (P07550 whole entry, looked up): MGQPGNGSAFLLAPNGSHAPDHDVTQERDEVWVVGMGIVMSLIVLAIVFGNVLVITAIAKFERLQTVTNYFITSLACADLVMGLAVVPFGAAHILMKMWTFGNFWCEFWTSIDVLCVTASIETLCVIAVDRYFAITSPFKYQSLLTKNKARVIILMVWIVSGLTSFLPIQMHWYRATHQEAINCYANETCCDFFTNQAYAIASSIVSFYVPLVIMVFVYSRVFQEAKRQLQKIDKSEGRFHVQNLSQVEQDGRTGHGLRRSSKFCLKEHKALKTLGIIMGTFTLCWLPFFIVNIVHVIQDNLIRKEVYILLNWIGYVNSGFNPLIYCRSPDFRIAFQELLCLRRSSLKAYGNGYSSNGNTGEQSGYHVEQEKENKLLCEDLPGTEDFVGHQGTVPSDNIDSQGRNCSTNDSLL

With `C=CC(=O)Nc1cccc(C(=O)Nc2ccc(Nc3cc(-c4[nH]c(SC)nc4C)ccn3)cc2)c1`, the % of control in [1] (at 1 µM) was 73%; in [1] (at 5 µM) it was 68%; in [2] (at 1 µM), 106%; in [2] (at 5 µM), 92%.
As for `COc1cc(Nc2nc(C)cc(-c3cnn4nc(OC)ccc34)n2)cc(C(F)(F)F)c1`, the % of control was determined as 100% in [3], 100% in assay [4] and 92% in [5].
With `CC[C@@H](Nc1c(C#N)c(-c2ccc(-c3cccc(C)c3F)cc2)nc2cnccc12)C(=O)O` [BAY-091], the % of inhibition in assay [6] stood at 24%.
In [7], `COc1cc(C(=O)N2CC[C@@H](O)[C@@H](N)C2)cc2nc(-c3cc4ccccc4n3CC3CC3)n(C)c12` displayed a pXC50 of under 4.5 M.
Regarding `Cc1cc(CN)cc(C)c1-c1ncn(C)c1-c1cncn1C`, the dTM in assay [8] is -1.79 K.
For the molecule `C=CC(=O)Nc1cc(-n2c(=O)ccc3cnc4ccc(-c5ccc(NS(C)(=O)=O)cc5)cc4c32)ccc1C`, the % of control in assay [9] (at 1 µM) and in [9] (at 10 µM) was 100% throughout.
For `O=C(NOC[C@H](O)CO)c1ccc(F)c(F)c1Nc1ccc(I)cc1F`, the % of control in assay [10] was determined as 100%; in assay [11], 74%.
Take `Cc1cc(C)cc([C@H]2c3cc(C)ccc3NC(=O)CN2C(=O)c2ccc(Br)s2)c1`: the % of activity came out at 101% in assay [12] (at 1 µM) and 102% in assay [12] (at 10 µM).
Take `CC[C@@H]1[C@H](F)C(=O)N[C@@H]1COc1nccc2cc(C(N)=O)c(OC)cc12` [ZIMLOVISERTIB]: the % of inhibition in [13] is -5.8%; in assay [14] it was 8.89%; in [15] (at 0.01 µM) it was -5.9%; in [15] (at 0.04 µM), -16.2%; in [15] (at 0.2 µM), -1.2%; in [15] (at 1 µM), -2.9%. Moreover, in assay [15] (at 5 µM), the % of inhibition was -24%.
In assay [16], `N#Cc1cccc(-c2c[nH]c3ncnc(N4CCOCC4)c23)c1` yielded a % of control of 100%.
For orientation: IC50 means the concentration that inhibits the measured activity by half. A high value points to weaker potency in that assay. Take `CN(C)C(=O)Cn1cc(-c2ccc(-c3cncc4ccccc34)cc2)cn1`: inhibition in assay [17] was half-maximal at 531 nM (IC50).
